The source of these data is patent US20210087191A1, “SUBSTITUTED 3-ISOBUTYL-9,10-DIMETHOXY-1,3,4,6,7,11B-HEXAHYDRO-2H-PYRIDO[2,1-a]ISOQUINOLIN-2-OL COMPOUNDS, THEIR [sequence], AND USE THEREOF” (DISPERSOL TECHNOLOGIES, LLC, priority 2020, published 2021).

In brackets after ≈: the same amount, converted by molar mass. Read-outs that look alike come from different tables or passages of the source.

A short description of data set [1]: Metabolic stability in human liver microsomes (LM), LC-MS/MS (first table). To be noted: for microsomal CLint: Table 1, read-out: Human LM CLint (μL/min/mg protein); for half-life: Table 1, read-out: Human LM t1/2. Type of data set: in vitro ADME. As to the method:
(§1) Metabolism of compound(s) to release (+)-α-DTHBZ was determined by the half-life (t1/2) and intrinsic clearance (CIint) in human plasma (PS) and liver microsomes (LM) using tandem mass spectrometry (LC-MS/MS).

A short description of data set [2]: Permeability in Caco-2 cell monolayer. Type of data set: in vitro ADME. To be noted: human; for efflux ratio: Caco-2; for Papp A→B: Caco-2, apical to basolateral; for Papp B→A: Caco-2, basolateral to apical. Here is the method:
The intestinal permeability of compound(s) was evaluated in Caco-2 cells by assessing transport across the cell monolayer in the apical to basolateral (A-B) direction. Active efflux was also assessed by measuring transport in the basolateral to apical (BA) direction which enables evaluation of the efflux ratio. Analysis of transport is quantified by tandem mass spectrometry (LC-MS/MS).

Data set [3] is described as follows: Kinetic solubility in PBS buffer. The data set is classed as physicochemical. To be noted: aqueous buffer, kinetic from dmso stock, compound suspended at 300 μM, 25° C. Here is the method: Kinetic solubility was determined by suspending compound at 300 μM at pH 1.2 and 7.4 in PBS buffer. The suspension was equilibrated by shaking at 25° C. at 1100 RPM for 2 hours and then pH was measured following filtration. The filtrate was then diluted by an appropriate factor (e.g. 100-fold). Quantitation was done by LC-MS/MS with reference to a standard solution.

A short description of data set [4]: Stability in human plasma (PS), LC-MS/MS. Type of data set: in vitro ADME. To be noted: for half-life: read-out: Human PS t1/2. Here is the method: as §1
A short description of data set [5]: Heps. stability assay, human cryopreserved hepatocytes. Type of data set: in vitro ADME. To be noted: for microsomal CLint: read-out: Heps. stability assay Human Clint (μL/min/mg protein); for half-life: read-out: Heps. stability assay Human t1/2. Here is the method:
Metabolism of compound(s) to release (+)-α-DTHBZ was determined by the half-life (t1/2) and intrinsic clearance (CIint) in human cryopreserved hepatocytes using tandem mass spectrometry (LC-MS/MS).

Data set [6] in a line: LM stability assay, human (second table). Type of data set: in vitro ADME. To be noted: human liver microsomes, Table 2; for microsomal CLint: read-out: LM stability assay Human Clint (μL/min/mg protein); for half-life: read-out: LM stability assay Human t1/2. Here is the method:
Metabolism of compound(s) to release (+)-α-DTHBZ was determined by the half-life (t1/2) and intrinsic clearance (CIint) in human liver microsomes (LM) using tandem mass spectrometry (LC-MS/MS).

For data set [7] the following is noted: in vivo; cited from earlier work.
The mark [8] stands for this setting: pH 1.2, PBS buffer, read-out: Kinetic Solubility pH = 1.2 (300 μM).
Setting [9] is: pH 7.4, PBS buffer, read-out: Kinetic Solubility pH = 7.4 (300 μM).

As to `COc1cc2c(cc1OC)[C@H]1C[C@@H](OC(=O)c3cncc(C(=O)OC(C)C)c3)[C@H](CC(C)C)CN1CC2` [Example 9, 3-((2R,3R,11bR)-3-isobutyl-9,10-dimethoxy-1,3,4,6,7,11b-hexahydro-2H-pyrido[2,1-a]isoquinolin-2-yl) 5-isopropyl pyridine-3,5-dicarboxylate], the microsomal CLint worked out at 16.3 µL/min/mg in data set [1], 121 µL/min/mg in data set [5] and 613 µL/min/mg in data set [6]. The figures for the half-life in data set [1], in data set [5] and in data set [6] were 0.708 h, 0.191 h and 0.0188 h, respectively. The efflux ratio in data set [2] is 0.95. For the same compound, the apical-to-basolateral permeability (Papp A→B) in data set [2] was 0.202 ×10⁻⁶ cm/s. This compound registered a basolateral-to-apical permeability (Papp B→A) in data set [2] of 0.191 ×10⁻⁶ cm/s. Further, the solubility (kinetic) at 2 h in data set [3] (setting [8]) came out at 292 µM (≈ 149 µg/mL); in data set [3] (setting [9]) it was 0.0018 µM (≈ 0.000919 µg/mL). For the same compound, in data set [4], the “Human PS t1/2 (min)” value is reported as “∞”.
`COc1cc2c(cc1OC)[C@H]1C[C@@H](OC(=O)c3cncc(C(=O)O[C@@H]4C[C@@H]5c6cc(OC)c(OC)cc6CCN5C[C@H]4CC(C)C)c3)[C@H](CC(C)C)CN1CC2` [Example 15, 3,5-bis[(2R,3R,11bR)-9,10-dimethoxy-3-(2-methylpropyl)-1H,2H,3H,4H,6H,7H,11bH-pyrido[2,1-a]isoquinolin-2-yl] pyridine-3,5-dicarboxylate]: the microsomal CLint was below 0.08 µL/min/mg in data set [1] and 16.6 µL/min/mg in data set [5]. The half-life was above 143 h in data set [1], above 53.7 h in data set [4] and 1.39 h in data set [5]. Also, in data set [2], the Papp A→B was below 0.01 ×10⁻⁶ cm/s. The Papp B→A in data set [2] is below 0.01 ×10⁻⁶ cm/s. Further, the solubility (kinetic) at 2 h in data set [3] (setting [8]) was determined as 317 µM (≈ 244 µg/mL); in data set [3] (setting [9]), 0.06 µM (≈ 0.0462 µg/mL). Also, the “LM stability assay Human t1/2 (min)” value in data set [6] is on record as “∞”.
As for `COc1cc2c(cc1OC)[C@H]1C[C@@H](OC(=O)/C=C/C(=O)N[C@@H](Cc3ccccc3)C(=O)O)[C@H](CC(C)C)CN1CC2` [Example 12, (2S)-2-[(2E)-4-[[(2R,3R,11bR)-9,10-dimethoxy-3-(2-methylpropyl)-1H,2H,3H,4H,6H,7H,11bH-pyrido[2,1-a]isoquinolin-2-yl]oxy]-4-oxobut-2-enamido]-3-phenylpropanoic acid], the microsomal CLint in data set [1] was 1.42 µL/min/mg; in data set [5], 6.27 µL/min/mg; in data set [6], 2.38 µL/min/mg. Also, the half-life in data set [1] was determined as 11.5 h; in data set [4] it was 0.238 h; in data set [5], 3.69 h; in data set [6] it was 8.91 h. In data set [2], the efflux ratio came out at 85.4. This compound also came in with a Papp A→B in data set [2] of 0.13 ×10⁻⁶ cm/s. The compound further showed an apparent permeability from basolateral to apical (Papp B→A) in data set [2] of 11.3 ×10⁻⁶ cm/s. In addition, the values for the kinetic solubility at 2 h in data set [3] (setting [8]) and in data set [3] (setting [9]) were 320 µM (≈ 181 µg/mL) and 306 µM (≈ 173 µg/mL), respectively.
On to `COc1cc2c(cc1OC)[C@H]1C[C@@H](OC(=O)CCCCCCC(=O)O[C@@H]3C[C@@H]4c5cc(OC)c(OC)cc5CCN4C[C@H]3CC(C)C)[C@H](CC(C)C)CN1CC2` [Example 16, bis[(2R,3R,11bR)-9,10-dimethoxy-3-(2-methylpropyl)-1H,2H,3H,4H,6H,7H,11bH-pyrido[2,1-a]isoquinolin-2-yl] octanedioate], for which the values for the microsomal CLint in data set [1], in data set [5] and in data set [6] were below 1.25 µL/min/mg, 22.6 µL/min/mg and 150 µL/min/mg, respectively. Further, the half-life in data set [1] is above 9.21 h; in data set [5], 1.03 h; in data set [6] it was 0.0775 h. The same compound came in with an apparent permeability from apical to basolateral (Papp A→B) in data set [2] below 0.02 ×10⁻⁶ cm/s. The compound further yielded a Papp B→A in data set [2] below 0.01 ×10⁻⁶ cm/s. The solubility (kinetic) at 2 h is 141 µM (≈ 110 µg/mL) in data set [3] (setting [8]) and 0.042 µM (≈ 0.0326 µg/mL) in data set [3] (setting [9]). Besides, the “Human PS t1/2 (min)” value in data set [4] is on record as “∞”.
As for `COc1cc2c(cc1OC)[C@H]1C[C@@H](OC(=O)CCC(=O)O[C@@H]3C[C@@H]4c5cc(OC)c(OC)cc5CCN4C[C@H]3CC(C)C)[C@H](CC(C)C)CN1CC2` [Example 17], the values for the microsomal CLint in data set [1], in data set [5] and in data set [6] were 1.59 µL/min/mg, 16.9 µL/min/mg and 71.5 µL/min/mg, respectively. For the same compound, the half-life in data set [1] came out at 7.6 h; in data set [4] it was 36.9 h; in data set [5], 1.37 h; in data set [6], 0.162 h. Moreover, in data set [2], the efflux ratio is above 1.93. The Papp A→B in data set [2] was below 0.02 ×10⁻⁶ cm/s. In data set [2], this compound had a basolateral-to-apical permeability (Papp B→A) of 0.0333 ×10⁻⁶ cm/s. Moreover, the results for the kinetic solubility at 2 h in data set [3] (setting [8]) and in data set [3] (setting [9]) were 308 µM (≈ 222 µg/mL) and 0.0019 µM (≈ 0.00137 µg/mL), respectively.
As to `COc1cc2c(cc1OC)[C@H]1C[C@@H](OC(=O)CCCCCCC(=O)O)[C@H](CC(C)C)CN1CC2` [Example 5, 8-[[(2R,3R,11bR)-9,10-dimethoxy-3-(2-methylpropyl)-1H,2H,3H,4H,6H,7H,11bH-pyrido[2,1-a]isoquinolin-2-yl]oxy]-8-oxooctanoic acid], in data set [1], the microsomal CLint came out at 3.16 µL/min/mg and the half-life is 3.89 h. Further, in data set [2], the efflux ratio was determined as 0.98, the Papp A→B was found to be 22.4 ×10⁻⁶ cm/s and the Papp B→A was 22 ×10⁻⁶ cm/s. The kinetic solubility at 2 h in data set [3] (setting [8]) was determined as 276 µM (≈ 131 µg/mL). For the same compound, in data set [3] (setting [9]), the kinetic solubility at 2 h was 306 µM (≈ 146 µg/mL). Besides, the “Human PS t1/2 (min)” value in data set [4] is given as “∞”. Further, in data set [5], the microsomal CLint was determined as 50.7 µL/min/mg and the half-life worked out at 0.456 h. In data set [6], the microsomal CLint worked out at 1.04 µL/min/mg and the half-life came to 56.8 h.
`COc1cc2c(cc1OC)[C@H]1C[C@@H](OC(=O)CCC(=O)OC(C)C)[C@H](CC(C)C)CN1CC2` [Example 7, (2R,3R,11bR)-9,10-dimethoxy-3-(2-methylpropyl)-1H,2H,3H,4H,6H,7H,11bH-pyrido[2,1-a]isoquinolin-2-yl 1-isopropyl butanedioate]: the microsomal CLint is 65.8 µL/min/mg in data set [1], 282 µL/min/mg in data set [5] and 922 µL/min/mg in data set [6]. The half-life is 0.176 h in data set [1], above 13.5 h in data set [4], 0.082 h in data set [5] and 0.0125 h in data set [6]. In data set [2], the efflux ratio amounted to 0.84. This compound showed an apical-to-basolateral permeability (Papp A→B) in data set [2] of 1.78 ×10⁻⁶ cm/s. In addition, in data set [2], the Papp B→A amounted to 1.5 ×10⁻⁶ cm/s. Moreover, the kinetic solubility at 2 h in data set [3] (setting [8]) was found to be 311 µM (≈ 143 µg/mL); in data set [3] (setting [9]), 5.84 µM (≈ 2.7 µg/mL).
Turning to `COc1cc2c(cc1OC)[C@H]1C[C@@H](OC(=O)/C=C\C(=O)N[C@H](C(=O)O)C(C)C)[C@H](CC(C)C)CN1CC2` [Example 13, (2S)-2-[(2Z)-4-[[(2R,3R,11bR)-9,10-dimethoxy-3-(2-methylpropyl)-1H,2H,3H,4H,6H,7H,11bH-pyrido[2,1-a]isoquinolin-2-yl]oxy]-4-oxobut-2-enamido]-3-methylbutanoic acid], the results for the microsomal CLint in data set [1], in data set [5] and in data set [6] were 2.17 µL/min/mg, 4.75 µL/min/mg and 0.35 µL/min/mg, respectively. The half-life is 5.76 h in data set [1], 2.38 h in data set [4], 4.89 h in data set [5] and 51.1 h in data set [6]. Moreover, the efflux ratio in data set [2] was above 402. Moreover, the Papp A→B in data set [2] is below 0.01 ×10⁻⁶ cm/s. In data set [2], this compound returned a Papp B→A of 4.02 ×10⁻⁶ cm/s. For the same compound, the kinetic solubility at 2 h in data set [3] (setting [8]) is 303 µM (≈ 156 µg/mL); in data set [3] (setting [9]), 300 µM (≈ 155 µg/mL).
With `COc1cc2c(cc1OC)[C@H]1C[C@@H](OC(=O)NCC(C)C)[C@H](CC(C)C)CN1CC2` [Example 23, (2R,3R,11bR)-9,10-dimethoxy-3-(2-methylpropyl)-1H,2H,3H,4H,6H,7H,11bH-pyrido[2,1-a]isoquinolin-2-yl N-(2-methylpropyl)carbamate], the microsomal CLint was below 3.95 µL/min/mg in data set [1], 35.6 µL/min/mg in data set [5] and 208 µL/min/mg in data set [6]. Also, the half-life in data set [1] was above 2.92 h; in data set [4], 438 h; in data set [5] it was 0.649 h; in data set [6], 0.0557 h. Moreover, the efflux ratio in data set [2] was 0.67. This compound also came in with an apparent permeability from apical to basolateral (Papp A→B) in data set [2] of 14.2 ×10⁻⁶ cm/s. For the same compound, the basolateral-to-apical permeability (Papp B→A) in data set [2] is 9.54 ×10⁻⁶ cm/s. The kinetic solubility at 2 h stood at 312 µM (≈ 131 µg/mL) in data set [3] (setting [8]) and 91.2 µM (≈ 38.2 µg/mL) in data set [3] (setting [9]).
With `[2H]C([2H])([2H])Oc1cc2c(cc1OC([2H])([2H])[2H])C1CC(=O)C(CC(C)C)CN1CC2` (stereo not shown) [Austedo®], the “median Tmax” value in data set [7] was 3 to 4 h.
